The structures appear in SMILES notation.

In general, inhibition in vivo refers to the percentage by which the read-out fell short of the control. Lower therefore signals little suppression.

In the assay the test system is TNF-α. Nature of the assay: Determination of TNF-α inhibition rate (LPS-induced inflammation in mice, serum TNF-α). The assay is classed as in vivo. The note with it: Mus musculus, 1 h, oral 100 mg/kg in 0.5% methyl cellulose, LPS 0.4 mg/kg i.p. one hour later, serum TNF-α one hour after LPS. As for the experimental part:
A test substance was suspended in a 0.5%. (w/v) methyl cellulose and orally administered to mice at a dose of 100 mg/kg. One hour later, a lipopolysaccharide (LPS, Sigma-Aldrich, L2630 (trade name)) (0.4 mg/kg) was intraperitoneally administered to induce inflammation. One hour after administration of LPS, blood was taken from the vena cava under anesthesia with isoflurane, placed in a tube containing a serum separating agent, allowed to stand still at room temperature for 20-30 minutes and centrifuged at 4° C. at 12,000 rpm for 5 minutes to obtain the serum. Thereafter, the amount of the TNF-α in the serum was measured by using Mouse TNF-α Elisa Kit (Invitrogen, KMC3011C (trade name)) or Mouse TNF-α Immunoassay Kit (PerkinElmer, AL505 (trade name)) in accordance with the protocol of the kit. The serum was diluted 10 times with the dilution solution contained in the kit and put in use.
TNF-α inhibition rate (%) of the test substance was calculated in accordance with the following expression. TNF-α inhibition rate (%)=[(TNF-α amount of control group)−(TNF-α amount of test substance administration group)]×100/(TNF-α amount of control group)

`COC1=CC(=O)C[C@@H](C)[C@]12Oc1c(Cl)c(OCCO)cc(OC)c1C2=O` [Example 1, (2S,5′R)-7-Chloro-6-(2-hydroxyethoxy)-3′,4-dimethoxy-5′-methyl-spiro[benzofuran-2,4′-cyclohex-2-ene]-1′,3-dione] showed an inhibition in vivo at 100 mg/kg of 62%.
The value for `COCCOc1cc(OC)c2c(c1Cl)O[C@]1(C2=O)C(OC)=CC(=O)C[C@H]1C` [Example 2, (2S,5′R)-7-Chloro-3′,4-dimethoxy-6-(2-methoxyethoxy)-5′-methyl-spiro[benzofuran-2,4′-cyclohex-2-ene]-1′,3-dione] was 71%; that for `COC1=CC(=O)C[C@@H](C)[C@]12Oc1c(Cl)c(-c3ccn(C)n3)cc(OC)c1C2=O` [Example 3, (2S,5′R)-7-Chloro-3′,4-dimethoxy-5′-methyl-6-(1-methylpyrazol-3-yl)spiro[benzofuran-2,4′-cyclohex-2-ene]-1′,3-dione] was 65%; that for `CCn1ccc(-c2cc(OC)c3c(c2Cl)O[C@]2(C3=O)C(OC)=CC(=O)C[C@H]2C)n1` [Example 4, (2S,5′R)-7-Chloro-6-(1-ethylpyrazol-3-yl)-3′,4-dimethoxy-5′-methyl-spiro[benzofuran-2,4′-cyclohex-2-ene]-1′,3-dione] was 73%.
The value for `COC1=CC(=O)C[C@@H](C)[C@]12Oc1c(Cl)c(-c3nnc(C)o3)cc(OC)c1C2=O` [Example 5, (2S,5′R)-7-Chloro-3′,4-dimethoxy-5′-methyl-6-(5-methyl-1,3,4-oxadiazol-2-yl)spiro[benzofuran-2,4′-cyclohex-2-ene]-1′,3-dione] was 70%; that for `COC1=CC(=O)C[C@@H](C)[C@]12Oc1c(Cl)c(-c3nc(C)no3)cc(OC)c1C2=O` [Example 6, (2S,5′R)-7-Chloro-3′,4-dimethoxy-5′-methyl-6-(3-methyl-1,2,4-oxadiazol-5-yl)spiro[benzofuran-2,4′-cyclohex-2-ene]-1′,3-dione] was 55%.
The value for `COC1=CC(=O)C[C@@H](C)[C@]12Oc1c(Cl)c(-c3noc(C)n3)cc(OC)c1C2=O` [Example 7, (2S,5′R)-7-Chloro-3′,4-dimethoxy-5′-methyl-6-(5-methyl-1,2,4-oxadiazol-3-yl)spiro[benzofuran-2,4′-cyclohex-2-ene]-1′,3-dione] was 65%; that for `COC1=CC(=O)C[C@@H](C)[C@]12Oc1c(Cl)c(-c3nnc(C(C)(C)O)o3)cc(OC)c1C2=O` [Example 8, (2S,5′R)-7-Chloro-6-[5-(1-hydroxy-1-methyl-ethyl)-1,3,4-oxadiazol-2-yl]-3′,4-dimethoxy-5′-methyl-spiro[benzofuran-2,4′-cyclohex-2-ene]-1′,3-dione] was 38%.
As to `COC1=CC(=O)C[C@@H](C)[C@]12Oc1c(Cl)c(-c3nnc([C@H](C)O)o3)cc(OC)c1C2=O` [Example 9, (2S,5′R)-7-Chloro-6-[5-[(1S)-1-hydroxyethyl]-1,3,4-oxadiazol-2-yl]-3′,4-dimethoxy-5′-methyl-spiro[benzofuran-2,4′-cyclohex-2-ene]-1′,3-dione], the inhibition in vivo at 100 mg/kg worked out at 65%.
The value for `COC1=CC(=O)C[C@@H](C)[C@]12Oc1c(Cl)c(-c3nnc([C@@H](C)O)o3)cc(OC)c1C2=O` [Example 10, (2S,5′R)-7-Chloro-6-[5-[(1R)-1-hydroxyethyl]-1,3,4-oxadiazol-2-yl]-3′,4-dimethoxy-5′-methyl-spiro[benzofuran-2,4′-cyclohex-2-ene]-1′,3-dione] was 58%; that for `CCOc1cc(-c2nnc(C(C)(C)O)o2)c(Cl)c2c1C(=O)[C@@]1(O2)C(OC)=CC(=O)C[C@H]1C` [Example 11, (2S,5′R)-7-Chloro-4-ethoxy-6-[5-(1-hydroxy-1-methyl-ethyl)-1,3,4-oxadiazol-2-yl]-3′-methoxy-5′-methyl-spiro[benzofuran-2,4′-cyclohex-2-ene]-1′,3-dione] was 61%.
As for `CCOc1cc(-c2nnc([C@H](C)O)o2)c(Cl)c2c1C(=O)[C@@]1(O2)C(OC)=CC(=O)C[C@H]1C` [Example 12, (2S,5′R)-7-Chloro-4-ethoxy-6-[5-[(1S)-1-hydroxyethyl]-1,3,4-oxadiazol-2-yl]-3′-methoxy-5′-methyl-spiro[benzofuran-2,4′-cyclohex-2-ene]-1′,3-dione], the inhibition in vivo at 100 mg/kg is 61%.
The value for `COC1=CC(=O)C[C@@H](C)[C@]12Oc1c(Cl)c(-c3nc(C(C)O)no3)cc(OC)c1C2=O` (stereo partly drawn) [Example 13, (2S,5′R)-7-Chloro-6-[3-(l-hydroxyethyl)-1,2,4-oxadiazol-5-yl]-3′,4-dimethoxy-5′-methyl-spiro[benzofuran-2,4′-cyclohex-2-ene]-1′,3-dione] was 82%.
The molecule `COC1=CC(=O)C[C@@H](C)[C@]12Oc1c(Cl)c(-c3nnc(C)o3)cc(OCCO)c1C2=O` [Example 14, (2S,5′R)-7-Chloro-4-(2-hydroxyethoxy)-3′-methoxy-5′-methyl-6-(5-methyl-1,3,4-oxadiazol-2-yl)spiro[benzofuran-2,4′-cyclohex-2-ene]-1′,3-dione] had an inhibition in vivo at 100 mg/kg of 24%.
The value for `COC1=CC(=O)C[C@@H](C)[C@]12Oc1c(Cl)c(-c3nc(C)no3)cc(OCCO)c1C2=O` [Example 15, (2S,5′R)-7-Chloro-4-(2-hydroxyethoxy)-3′-methoxy-5′-methyl-6-(3-methyl-1,2,4-oxadiazol-5-yl)spiro[benzofuran-2,4′-cyclohex-2-ene]-1′,3-dione] was 55%; that for `COC1=CC(=O)C[C@@H](C)[C@]12Oc1c(Cl)c(-c3noc(C)n3)cc(OCCO)c1C2=O` [Example 16, (2S,5′R)-7-Chloro-4-(2-hydroxyethoxy)-3′-methoxy-5′-methyl-6-(5-methyl-1,2,4-oxadiazol-3-yl)spiro[benzofuran-2,4′-cyclohex-2-ene]-1′,3-dione] was 62%; that for `COC1=CC(=O)C[C@@H](C)[C@]12Oc1c(Cl)c(OC)cc(OC)c1C2=O` [Griseofulvin] was 19%.

For the origin of these results see patent publication US12091395B2, “Griseofulvin compound” (Daiichi Sankyo Company, Limited, priority 2016, dated 2024).
